In patent publication US8748430B2, “Pyrrolidin-3yl-methylamine quinoxaline derivatives” (Hoffmann-La Roche Inc, priority 2008, dated 2014) one finds Kb data, which are given here for six molecules.

One may read the Kb as the equilibrium dissociation constant of an antagonist, usually derived from a functional assay.

Structures are written as SMILES.

The assay has as its target T1, human orexin-2 (hOX2) receptor (Homo sapiens, UniProt O43614).
T1 construct: expressed in transfected cells
T1 sequence (O43614 1-444): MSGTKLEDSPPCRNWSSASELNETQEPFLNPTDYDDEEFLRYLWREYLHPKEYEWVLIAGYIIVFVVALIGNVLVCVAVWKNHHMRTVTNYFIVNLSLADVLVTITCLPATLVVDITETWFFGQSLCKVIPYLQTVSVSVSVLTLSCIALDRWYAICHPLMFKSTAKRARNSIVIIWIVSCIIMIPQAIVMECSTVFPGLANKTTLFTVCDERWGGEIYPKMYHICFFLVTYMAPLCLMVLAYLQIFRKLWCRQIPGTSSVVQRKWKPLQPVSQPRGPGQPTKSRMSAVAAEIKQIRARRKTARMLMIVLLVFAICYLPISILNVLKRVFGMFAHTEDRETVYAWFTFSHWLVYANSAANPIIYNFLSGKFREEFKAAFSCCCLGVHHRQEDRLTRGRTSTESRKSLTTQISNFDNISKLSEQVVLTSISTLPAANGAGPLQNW
Put plainly: Intracellular Ca2+ mobilization assay (FLIPR), antagonism of orexin-A at EC80. The following applies: CHO(dHFr-) cells stably expressing hOX2; orexin-A at EC80 as agonist; antagonist applied 25 min before; Kb=IC50/(1+[A]/EC50); read-out: Kb (μM) OX2R (human). It counts as cell-based. As to the method: Intracellular Ca^2+ Mobilization Assay
The Chinese Hamster Ovary (dHFr-) mutant cell line stably expressing human orexin-1 (hOX1) or human orexin-2 (hOX2) receptors were maintained in Dulbecco's Modified Eagle Medium (1×) with GlutaMax™1, 4500 mg/L D-Glucose and Sodium Pyruvate (Catalog No. 31966-021, Invitrogen, Carlsbad, Calif.), 5% dialyzed fetal calf serum (Catalog No. 26400-044), 100 μg/ml penicillin and 100 μg/ml streptomycin. The cells were seeded at 5×10^4 cells/well in the poly-D-lysine treated, 96-well, black/clear-bottomed plates (Catalog No. BD356640, BD Biosciences, Palo Alto, Calif.). 24 h later, the cells were loaded for 1 h at 37° C. with 4 μM Flou-4 acetoxymethyl ester (Catalog No. F-14202, Molecular Probes, Eugene, Oreg.) in FLIPR buffer (1×HBSS, 20 mM HEPES, 2.5 mM Probenecid). Hanks' Balanced Salt Solution (HBSS) (10×) (catalog No. 14065-049) and HEPES (1M) (catalog No. 15630-056) were purchased from Invitrogen, Carlsbad, Calif. Probenecid (250 mM) (catalog No. P8761) was from Sigma, Buchs, Switzerland. The cells were washed five times with FLIPR buffer to remove excess dye and intracellular calcium mobilization, [Ca^2+]i were measured using a Fluorometric Imaging Plate Reader (FLIPR-96, Molecular Devices, Menlo Park, Calif.) as described previously (Malherbe et al., Mol. Pharmacol., 64, 823-832, 2003). Orexin A (catalog No. 1455, Toris Cookson Ltd, Bristol, UK) was used as agonist. Orexin A ([…] stock solution in DMSO) was diluted in FLIPR buffer+0.1% BSA. The EC50 and EC80 values of orexin-A were measured daily from standard agonist concentration-response curves in CHO(dHFr-)-OX1R and -OX2R cell lines. All compounds were dissolved in 100% DMSO. Inhibition curves were determined by addition of 11 concentrations (0.0001-10 μM) of inhibitory compounds and using EC80 value of orexin-A as agonist (a concentration which gave 80% of max agonist response, determined daily). The antagonists were applied 25 min (incubation at 37° C.) before the application of the agonist. Responses were measured as peak increase in fluorescence minus basal, normalized to the maximal stimulatory effect induced by EC80 value of orexin-A or orexin-B. Inhibition curves were fitted according to the Hill equation: y=100/(1+(x/IC50)^nH), where nH=slope factor using Excel-fit 4 software (Microsoft). Kb values were calculated according to the following equation Kb=IC50/(1+[A]/EC50) where A is the concentration of agonist added which is very close to agonist EC80 value, and IC50 and EC50 values were derived from the antagonist inhibition and orexin-A or B agonist curves, respectively.
In general terms: A change in cytosolic calcium serves as a functional read-out for many receptors and channels.
As for `O=C(c1ccccc1OC(F)(F)C(F)F)N1CC[C@@H](CNc2cnc3cc(Cl)ccc3n2)C1` [Example 27, {(S)-3-[(6-Chloro-quinoxalin-2-ylamino)-methyl]-pyrrolidin-1-yl}-[2-(1,1,2,2-tetrafluoro-ethoxy)-phenyl]-methanone], the Kb is 0.0839 µM.

In the case of `Cc1ccc(C(F)(F)F)c(C(=O)N2CC[C@@H](CNc3cnc4cc(Cl)ccc4n3)C2)c1` [Example 28, {(S)-3-[(6-Chloro-quinoxalin-2-ylamino)-methyl]-pyrrolidin-1-yl}-(5-methyl-2-trifluoromethyl-phenyl)-methanone], the Kb was determined as 0.331 µM.

As to `Cc1onc(-c2ccccc2)c1C(=O)N1CC[C@@H](CNc2cnc3cc(Cl)ccc3n2)C1` [Example 29, {(S)-3-[(6-Chloro-quinoxalin-2-ylamino)-methyl]-pyrrolidin-1-yl}-(5-methyl-3-phenyl-isoxazol-4-yl)-methanone], the Kb amounted to 0.407 µM.

In the case of `O=C(c1cnoc1-c1ccccc1)N1CC[C@@H](CNc2cnc3cc(Cl)ccc3n2)C1` [Example 30, {(S)-3-[(6-Chloro-quinoxalin-2-ylamino)-methyl]-pyrrolidin-1-yl}-(5-phenyl-isoxazol-4-yl)-methanone], the Kb was found to be 0.34 µM.

Consider `Cc1ccc(Cl)c(C(=O)N2CC[C@@H](CNc3cnc4cc(Cl)ccc4n3)C2)c1` [Example 31, (2-Chloro-5-methyl-phenyl)-{(S)-3-[(6-chloro-quinoxalin-2-ylamino)-methyl]-pyrrolidin-1-yl}-methanone], for which the Kb was found to be 0.539 µM.

With `COc1ccc(C)cc1C(=O)N1CC[C@@H](CNc2cnc3cc(Cl)ccc3n2)C1` [Example 32, {(S)-3-[(6-Chloro-quinoxalin-2-ylamino)-methyl]-pyrrolidin-1-yl}-(2-methoxy-5-methyl-phenyl)-methanone], the Kb is 0.185 µM.
